Experimental findings from patent publication US9029395B2, “Tetrahydroquinoline derivatives useful as bromodomain inhibitors” (GlaxoSmithKline LLC, priority 2011, dated 2015) are described below.

One experiment addresses T1, Bromodomain BRD2 (1-473) (Homo sapiens, UniProt P25440).
T1 construct: Recombinant Human Bromodomains (BRD2 (1-473), BRD3 (1-435) and BRD4 (1-477)); made in house; host or cells: E. coli (pET15b vector)
In words: Time Resolved Fluorescence Resonance Energy Transfer (TR-FRET) binding assay, BRD2. The settings on record: BRD2 100 nM, acetylated histone peptide 300 nM. The method, then:
(§1) The binding of the compounds of formula (I) to Bromodomains BRD2, BRD3 and BRD4 was assessed using a time resolved fluorescent resonance energy transfer binding assay, that measures the binding of an acetylated histone peptide to the bromodomain protein.
(§2) The bromodomain protein, histone peptide and a variable concentration of test compound are incubated together to reach thermodynamic equilibrium.
(§3) • H-Ser-Gly-Arg-Gly-Lys(Ac)-Gly-Gly-Lys(Ac)-Gly-Leu-Gly-Lys(Ac)-Gly-Gly-Ala-Lys(Ac)-Arg-His-Gly-Ser-Gly-Ser-Lys(Biotin)-OH. 3TFA
(§4) Protein Production: Recombinant Human Bromodomains (BRD2 (1-473), BRD3 (1-435) and BRD4 (1-477)) were expressed in E. coli cells (in pET15b vector) with a six-His tag at the N-terminal. The His-tagged Bromodomain was extracted from E. coli cells using sonication and purified using a nickel sepharose 6FF column, the proteins were washed and then eluted with 50 mM Tris-Hcl pH8.0. 300 mM NaCl, 1 mM […] and 20 mM Imidazole. Further purification was performed by affinity chromatography on a HisTRAP HP column, eluting with a linear 0-500 mM sodium chloride gradient, over 20 column volumes. Final purification was completed by Superdex 200 prep grade size exclusion column. Purified protein was stored at −80 C in 20 mM HEPES pH 7.5 and 100 mM NaCl. Protein identity was confirmed by peptide mass fingerprinting and predicted molecular weight confirmed by mass spectrometry.
(§5) Protocol for Bromodomain BRD2, 3 and 4 Assays: All assay components were dissolved in buffer composition of 50 mM HEPES pH7.4, 50 mM NaCl and 0.5 mM CHAPS. The final concentration of bromodomain proteins were 100 nM and the histone peptide was 300 nM, these components are premixed and allowed to equilibrate for 1 hour in the dark. 8 μl of this reaction mixture was added to all wells containing 50 nl of various concentrations of test compound or DMSO vehicle (0.5% final) in Greiner 384 well black low volume microtitre plates and incubated in dark for 60 mins at room temperature. 2 μl of detection mixture containing anti-6his XL665 labeled antibody and streptavidin labeled with europium cryptate was added to all wells and a further dark incubation of at least 30 mins was performed. Plates were then read on the Envision platereader, (λex=317 nm, donor λEM=615 nm; acceptor λEM=665 nm; Dichroic LANCE dual). Time resolved fluorescent intensity measurements were made at both emission wavelengths and the ratio of acceptor/donor was calculated and used for data analysis. All data was normalized to the mean of 16 high and 16 low control wells on each plate. A four parameter curve fit of the following form was then applied: y=a+((b−a)/(1+(10^x/10^c)^d)
(§6) Where ‘a’ is the minimum, ‘b’ is the Hill slope, ‘c’ is the pIC50 and ‘d’ is the maximum.

In a further experiment the target is T2, Bromodomain BRD3 (1-435) (Homo sapiens, UniProt Q15059).
T2 construct: Recombinant Human Bromodomains (BRD2 (1-473), BRD3 (1-435) and BRD4 (1-477)); made in house; host or cells: E. coli (pET15b vector)
In words: Time Resolved Fluorescence Resonance Energy Transfer (TR-FRET) binding assay, BRD3. To be noted: BRD3 100 nM, acetylated histone peptide 300 nM. On the procedure:
as §1, §2, §3, §4, §5, §6

The next experiment addresses T3, Bromodomain BRD4 (1-477) (Homo sapiens, UniProt O60885).
T3 construct: Recombinant Human Bromodomains (BRD2 (1-473), BRD3 (1-435) and BRD4 (1-477)); made in house; host or cells: E. coli (pET15b vector)
In words: Time Resolved Fluorescence Resonance Energy Transfer (TR-FRET) binding assay, BRD4. To be noted: BRD4 100 nM, acetylated histone peptide 300 nM. The method, then: as §1, §2, §3, §4, §5, §6
(TR-FRET usually uses a lanthanide donor and a delayed reading to cut background.)

Experiment [1] has as its system LPS induced IL-6 secretion from whole blood. In words: Measurement of LPS induced IL-6 secretion from whole blood. To be noted: LPS 200 ng/ml, 24 hours, IL-6 by immunoassay. It is filed as cell-based. On the procedure: Activation of monocytic cells by agonists of toll-like receptors such as bacterial lipopolysaccharide (LPS) results in production of key inflammatory mediators including IL-6. Such pathways are widely considered to be central to the pathophysiology of a range of auto-immune and inflammatory disorders.
Compounds to be tested are diluted to give a range of appropriate concentrations of which 1 μl of the diluted stocks is added to a 96 well plate. Following addition of whole blood (130 μl) the plates are incubated at 37 degrees (5% CO2) for 30 min before the addition of 10 μl of 2.8 ug/ml LPS, diluted in complete RPMI 1640 (final concentration=200 ng/ml), to give a total volume of 140 ul per well. After further incubation for 24 hours at 37 degrees, 140 μl of PBS are added to each well. The plates are sealed, shaken for 10 minutes and then centrifuged (2500 rpm×10 min). 100 μl of the supernatant are removed and IL-6 levels assayed by immunoassay (typically by MesoScale Discovery technology) either immediately or following storage at −20 degrees. Concentration response curves for each compound was generated from the data and an IC50 value was calculated.

Where a name gives a salt, the structure may show the parent alone.

As a reminder, the IC50 is the concentration at which inhibition is half-maximal. Lower therefore signals inhibition by little substance.

T1 sequence (P25440 1-473): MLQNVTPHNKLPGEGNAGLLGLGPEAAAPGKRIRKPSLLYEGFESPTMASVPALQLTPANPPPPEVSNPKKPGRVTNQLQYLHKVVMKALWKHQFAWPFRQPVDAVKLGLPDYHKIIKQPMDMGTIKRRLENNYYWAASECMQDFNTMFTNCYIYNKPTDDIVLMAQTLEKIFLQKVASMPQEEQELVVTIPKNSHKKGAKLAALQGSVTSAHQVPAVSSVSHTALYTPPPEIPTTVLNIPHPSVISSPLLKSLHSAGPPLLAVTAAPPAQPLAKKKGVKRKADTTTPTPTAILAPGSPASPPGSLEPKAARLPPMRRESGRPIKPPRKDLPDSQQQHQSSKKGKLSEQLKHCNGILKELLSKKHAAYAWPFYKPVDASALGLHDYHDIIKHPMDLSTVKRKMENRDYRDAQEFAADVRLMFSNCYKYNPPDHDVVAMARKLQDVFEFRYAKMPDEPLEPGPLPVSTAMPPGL
T2 sequence (Q15059 1-435): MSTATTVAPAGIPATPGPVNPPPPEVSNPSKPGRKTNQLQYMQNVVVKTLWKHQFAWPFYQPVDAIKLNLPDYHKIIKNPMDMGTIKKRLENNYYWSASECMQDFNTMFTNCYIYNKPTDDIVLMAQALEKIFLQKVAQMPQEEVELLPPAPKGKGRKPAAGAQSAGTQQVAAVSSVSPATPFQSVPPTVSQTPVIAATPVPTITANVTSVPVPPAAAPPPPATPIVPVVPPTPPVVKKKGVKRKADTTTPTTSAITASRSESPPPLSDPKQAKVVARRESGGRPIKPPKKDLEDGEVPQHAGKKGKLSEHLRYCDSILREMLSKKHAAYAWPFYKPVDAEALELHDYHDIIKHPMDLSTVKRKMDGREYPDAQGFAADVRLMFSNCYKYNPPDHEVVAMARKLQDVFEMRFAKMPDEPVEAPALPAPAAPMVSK

Turning to `CC(=O)N1c2ccc(-c3ccc(C(=O)OCCN(C)C)cn3)cc2[C@H](Nc2ccc(C#N)cn2)C[C@@H]1C` [Example 6, 2-(Dimethylamino)ethyl 6-((2S,4R)-1-acetyl-4-((5-cyanopyridin-2-yl)amino)-2-methyl-1,2,3,4-tetrahydroquinolin-6-yl)nicotinate], the 50% inhibitory concentration (IC50) at Bromodomain BRD2 (1-473) is 63.1 to 501 nM; on Bromodomain BRD3 (1-435), 63.1 to 501 nM; at Bromodomain BRD4 (1-477), 63.1 to 501 nM; in experiment [1], 200 to 3160 nM.
Turning to `CC(=O)N1c2ccc(-c3ccc(C(=O)OCC[N+](C)(C)C)cc3)cc2[C@H](Nc2ccc(Cl)cc2)C[C@@H]1C` [Example 2, 2-((4-((2S,4R)-1-Acetyl-4-((4-chlorophenyl)amino)-2-methyl-1,2,3,4-tetrahydroquinolin-6-yl)benzoyl)oxy)-N,N,N-trimethylethanaminium, formate], the IC50 at Bromodomain BRD2 (1-473) was 63.1 to 501 nM; at Bromodomain BRD3 (1-435), 63.1 to 501 nM; at Bromodomain BRD4 (1-477), 63.1 to 501 nM; in experiment [1], 200 to 3160 nM.
Consider `CC(=O)N1c2ccc(-c3ccc(C(=O)OCCCN(C)C)cc3)cc2[C@H](NC(=O)OC(C)C)C[C@@H]1C` [Example 7, 3-(Dimethylamino)propyl 4-((2S,4R)-1-acetyl-4-((isopropoxycarbonyl)amino)-2-methyl-1,2,3,4-tetrahydroquinolin-6-yl)benzoate], for which the IC50 is 63.1 to 501 nM at Bromodomain BRD2 (1-473), 63.1 to 501 nM at Bromodomain BRD3 (1-435), 63.1 to 501 nM at Bromodomain BRD4 (1-477) and 200 to 3160 nM in experiment [1].
Take `CC(=O)N1c2ccc(-c3ccc(C(=O)OCCN(C)C)cc3)cc2[C@H](NC(=O)OC(C)C)C[C@@H]1C` [Example 8, 2-(Dimethylamino)ethyl 4-((2S,4R)-1-acetyl-4-((isopropoxycarbonyl)amino)-2-methyl-1,2,3,4-tetrahydroquinolin-6-yl)benzoate]: the IC50 is 63.1 to 501 nM on Bromodomain BRD2 (1-473), 63.1 to 501 nM at Bromodomain BRD3 (1-435), 63.1 to 501 nM at Bromodomain BRD4 (1-477) and 200 to 3160 nM in experiment [1].
On to `CC(=O)N1c2ccc(-c3ccc(C(=O)OCCCN(C)C)cc3)cc2[C@H](Nc2ccc(Cl)cc2)C[C@@H]1C` [Example 4, 3-(Dimethylamino)propyl 4-((2S,4R)-1-acetyl-4-((4-chlorophenyl)amino)-2-methyl-1,2,3,4-tetrahydroquinolin-6-yl)benzoate], for which the IC50 on Bromodomain BRD2 (1-473), on Bromodomain BRD3 (1-435) and at Bromodomain BRD4 (1-477) was 63.1 to 501 nM in each case.
As to `CC(=O)N1c2ccc(-c3ccc(C(=O)OCCC[N+](C)(C)C)cc3)cc2[C@H](Nc2ccc(Cl)cc2)C[C@@H]1C` [Example 3, 3-((4-((2S,4R)-1-Acetyl-4-((4-chlorophenyl)amino)-2-methyl-1,2,3,4-tetrahydroquinolin-6-yl)benzoyl)oxy)-N,N,N-trimethylpropan-1-aminium, formate], the IC50 is 63.1 to 501 nM on Bromodomain BRD2 (1-473), 63.1 to 501 nM at Bromodomain BRD3 (1-435), 63.1 to 501 nM on Bromodomain BRD4 (1-477) and 200 to 3160 nM in experiment [1].
`CC(=O)N1c2ccc(-c3ccc(C(=O)OCCN(C)C)cc3)cc2[C@H](Nc2ccc(Cl)cc2)C[C@@H]1C` [Example 1, 2-(Dimethylamino)ethyl 4-((2S,4R)-1-acetyl-4-((4-chlorophenyl)amino)-2-methyl-1,2,3,4-tetrahydroquinolin-6-yl)benzoate hydrochloride]: the IC50 on Bromodomain BRD2 (1-473) was 63.1 to 501 nM; on Bromodomain BRD3 (1-435) it was 63.1 to 501 nM; at Bromodomain BRD4 (1-477), 63.1 to 501 nM; in experiment [1], 200 to 3160 nM.
For `CC(=O)N1c2ccc(-c3ccc(C(=O)OCCCN(C)C)cn3)cc2[C@H](Nc2ccc(C#N)cn2)C[C@@H]1C` [Example 5, 3-(Dimethylamino)propyl 6-((2S,4R)-1-acetyl-4-((5-cyanopyridin-2-yl)amino)-2-methyl-1,2,3,4-tetrahydroquinolin-6-yl)nicotinate], the IC50 is 63.1 to 501 nM at Bromodomain BRD2 (1-473), 63.1 to 501 nM on Bromodomain BRD3 (1-435), 63.1 to 501 nM on Bromodomain BRD4 (1-477) and 200 to 3160 nM in experiment [1].
